Patent publication US20180185408A1, “ANTIFUNGAL NYLON-3 POLYMERS AND COMBINATION THERAPY USING THEM TO TREAT FUNGAL INFECTIONS” (priority 2016, published 2018)
≈ marks a conversion by molar mass, not a printed value.

Test system: filamentous fungi
Assay: MIC100 against non-Aspergillus filamentous fungi (CLSI M38-A2)
Type: cell-based

## CCC(C)n1ncn(-c2ccc(N3CCN(c4ccc(OCC5COC(Cn6cncn6)(c6ccc(Cl)cc6Cl)O5)cc4)CC3)cc2)c1=O (centres unmarked) [Itraconazole, itraconazole]
Penicillium expansum
  MIC: 1 µg/mL (≈ 1.42 µM)
Talaromyces marneffei
  MIC: 0.125 µg/mL (≈ 0.177 µM)
